Columns and labels:
[1] = molecular target: T1, MoATG4 (Pyricularia oryzae, UniProt Q523C3); conditions: 10 uM compound; RT, 10 min preincubation; thiol-reactive, proposed covalent
T1 construct: gene ATG4

[2] = molecular target: T1, MoATG4; assay: biochemical
[3] = molecular target: T2, BcATG4 (Botrytis cinerea, UniProt A6SDQ3); assay: isothermal titration calorimetry
T2 construct: gene atg4

[4] = molecular target: T2, BcATG4

T1 sequence (Q523C3 whole entry, looked up): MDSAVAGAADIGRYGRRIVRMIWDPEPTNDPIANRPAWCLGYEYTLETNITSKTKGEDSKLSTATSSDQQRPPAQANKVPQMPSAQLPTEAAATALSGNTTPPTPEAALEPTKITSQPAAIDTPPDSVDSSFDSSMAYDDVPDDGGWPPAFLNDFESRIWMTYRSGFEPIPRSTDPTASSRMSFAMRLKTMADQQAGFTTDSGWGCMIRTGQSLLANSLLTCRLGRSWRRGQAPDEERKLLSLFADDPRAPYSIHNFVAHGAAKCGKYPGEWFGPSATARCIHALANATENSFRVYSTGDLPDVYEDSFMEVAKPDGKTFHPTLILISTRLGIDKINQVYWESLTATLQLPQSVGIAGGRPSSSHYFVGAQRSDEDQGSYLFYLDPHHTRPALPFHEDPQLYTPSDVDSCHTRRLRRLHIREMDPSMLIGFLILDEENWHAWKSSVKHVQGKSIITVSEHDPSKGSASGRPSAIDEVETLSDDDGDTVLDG
T2 sequence (A6SDQ3 whole entry): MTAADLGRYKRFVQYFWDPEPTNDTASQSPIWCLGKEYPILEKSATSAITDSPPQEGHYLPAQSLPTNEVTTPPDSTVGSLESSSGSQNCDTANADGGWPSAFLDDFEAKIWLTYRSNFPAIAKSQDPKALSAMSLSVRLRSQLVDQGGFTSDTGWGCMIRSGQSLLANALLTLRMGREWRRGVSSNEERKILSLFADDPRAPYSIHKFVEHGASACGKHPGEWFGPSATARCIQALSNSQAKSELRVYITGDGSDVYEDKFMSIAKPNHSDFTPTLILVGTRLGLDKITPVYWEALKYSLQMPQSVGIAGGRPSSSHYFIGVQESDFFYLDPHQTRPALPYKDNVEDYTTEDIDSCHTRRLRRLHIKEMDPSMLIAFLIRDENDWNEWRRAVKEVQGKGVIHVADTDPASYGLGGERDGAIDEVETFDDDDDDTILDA

SMILES | in vitro cleavage of Citrine-MoATG8-ShR sensor, western blot [1] | Kd [2] [nM] | Kd [3] [nM] | IC50 [4] [nM]
O=c1c2ccccc2[se]n1-c1ccccc1 [EB, ebselen] | strong inhibition of the MoATG4-mediated cleavage of MoATG8 by EB and its analogs | 1 | 3.4 | 620 ± 30
O=C1c2ccccc2[Se](=O)N1c1ccccc1 (centres unmarked) [EO, ebselen oxide] | strong inhibition of the MoATG4-mediated cleavage of MoATG8 by EB and its analogs |  |  | 500 ± 30
Cc1ccc(-n2sc3ccccc3c2=O)cc1 [PT, 2-(4-methylphenyl)−1,2-benzisothiazol-3(2H)-one] | strong inhibition of the MoATG4-mediated cleavage of MoATG8 by EB and its analogs |  |  | 1790 ± 240

From publication PMC10904834 (Nature Communications, 2024)
